In publication PMC12155980, “Design, Synthesis, and Biological Evaluations of a Novel Resveratrol-Type Analogue Against VEGF” (Molecules, 2025):
pKd: −log10 of the molar value.

What was measured:
HaCaT cells [1] = test: VEGF-mediated intracellular ROS formation (DCFH-DA); type: cell-based, human; settings: 0.3 to 3 µM
Experimental: VEGF acts as an inducer in reactive oxygen species (ROS) formation; such an interaction plays an essential role in the activation of VEGFR2-mediated pathways and downstream cell migration.
Figure 7 RE-1 attenuates VEGF-mediated ROS formation in HaCaT cells. (A) HaCaT cells were seeded onto coverslips and mounted with Prolong Gold Antifade Reagent with DAPI. Pictures of cells were captured with confocal microscopy Leica SP8 (Leica, Germany). (B) The intensities of fluorescent signals by DCFH-DA were quantified using the software Leica Application Suite (LAS, 4.12 version) X. Values were calculated as percentage of changes compared with the blank control (only medium), in mean ± SD, n = 4. * p < 0.05; compared with the control group.
Intracellular ROS accumulation was measured with a fluorescent ROS indicator DCFH-DA. Procedures were conducted as described previously. In brief, HaCaT cells were seeded onto coverslips at a density of 1 × 10^5 cells/mL. Following drug treatments, a DCFH-DA probe diluted in serum-free medium at 20 μM was introduced to the cells. The cells were incubated with DCFH-DA for 20 min in a 37 °C incubator. PBS wash was followed to rinse off the residual DCFH-DA. Following this, the cells were fixed with 4% paraformaldehyde (PFA) in PBS for 15 min at room temperature. The PFA was washed off with a PBS wash twice. Coverslips with fixed cells were mounted with Prolong Gold Antifade Reagent with DAPI (Cell Signalling Technology, Boston, MA, USA). Pictures of cells were captured with confocal microscopy Leica SP8 system at 20× magnification (Leica, Wetzlar, Germany). The intensities of fluorescent signals by DCFH-DA were determined through the software Leica Application Suite (LAS) X (Leica Microsystems, Wetzlar, Germany).

VEGF protein = biological target: T1, VEGF protein (Homo sapiens, UniProt P15692); test: Ultrafiltration binding assay with HPLC quantification; settings: ultrafiltration in presence and absence of VEGF protein
T1 sequence (P15692 1-191 isoform P15692-4): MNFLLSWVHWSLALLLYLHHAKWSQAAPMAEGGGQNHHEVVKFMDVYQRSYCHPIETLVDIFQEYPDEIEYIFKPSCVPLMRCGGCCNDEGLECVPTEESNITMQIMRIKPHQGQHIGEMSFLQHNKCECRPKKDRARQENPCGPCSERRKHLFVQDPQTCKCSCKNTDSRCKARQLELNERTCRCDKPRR

VEGF165 protein = biological target: T2, VEGF165 protein (Homo sapiens, UniProt P15692); test: SPR binding affinity assay (Biacore T200); settings: immobilized VEGF165, analytes 1 to 30 µM, estimated, read-out: dissociation constant (Kd)
T2 sequence (P15692 1-191 isoform P15692-4): T1 sequence (P15692 1-191 isoform P15692-4)
Experimental: In parallel, an ultrafiltration assay was conducted in the presence and absence of VEGF protein (Figure 2A). […] Subsequently, SPR investigation was performed using Biacore T200 (Cytiva, Washington, DC, USA) to detect the binding affinities of RE-1 to the targeted protein. […] When the binding activities between analytes and the protein were detected, response units (RUs) could be calculated and obtained accordingly.
Binding affinities between analytes and VEGF protein were determined using a Biacore T200 (Cytiva, Washington, DC, USA) with a GE Series dextran-coated (CM5) sensor chip. Specifically, the HBS-T mixture (150 mM NaCl, 10 mM Hepes, 0.05% polysorbate 20, 3.4 mM EDTA, 5% DMSO, pH 7.4) was selected as the operating buffer at 25 °C. The immobilizing VEGF protein was covalently placed onto the chip at the sensor surface through amide coupling reagent—EDC/NHS {1-ethyl-3-[3-(dimethylamino) propyl]carbodiimide hydrochloride)/N-hydroxysuccinimide}. Following surface activation, the VEGF protein was dissolved using a coupling buffer (0.1 M acetate buffer, pH 4.5) and placed at the surface of the sensor chip, until the RU (resonance unit) signal of the VEGF protein was detected and reached 6500 RU. To remove unreacted VEGF protein, the chip was washed and subsequently reacted with 10 mM glycine-HCl at pH 1.5. […] Data were further analyzed utilizing GE Biacore T200 control software.

VEGF/VEGFR2 complex = test: Western blot, phosphorylation of VEGF/VEGFR2 in HUVECs; type: cell-based, human; settings: VEGF 10 ng/mL
Experimental: (§1) In light of the investigation above, we further evaluated the anti-VEGF efficacy of RE-1 in cell studies. VEGFR2 was previously identified as the main receptor of VEGF protein. […] ERK1/2, a downstream signal factor, was subsequently stimulated and phosphorylated after the activation of VEGFR2 [17].
(A) VEGF was added at a concentration of 10 ng/mL, and avastin at 200 µg/mL was employed as the positive control. (B) The intensities of each band were quantified and analyzed with software Image Lab (6.1 version). Values were calculated as the percentage of changes compared with blank control (only medium), in mean ± SD, n = 4. * p < 0.05; compared with the control group.
(§2) HUVECs were seeded onto 12-well plates at a density of 1.5 × 10^4 cells/mL and subjected to serum starvation with a serum-free medium overnight. After treatment with various samples, the cells were directly lysed with 200 μL 2× sodium dodecyl sulfate polyacrylamide gel electrophoresis (SDS-PAGE) lysis buffer (100 mM Tris-Cl, pH 6.8, 8% SDS, 0.2% bromophenol blue, 20% glycerol, 400 mM β-mercaptoethanol). The lysates were obtained and denatured at 85 °C for 15 min. Afterwards, the samples were subjected to SDS-PAGE in a 10% gel. Then, 5% skim milk in Tris-buffered saline of pH 7.4 with 0.1% Tween-20 (as TBST) was used for blocking. […] The intensities of each band were quantified and analyzed with software Image Lab.

ERK1/2 = test: Western blot, phosphorylation of downstream ERK1/2 in HUVECs; type: cell-based, human; settings: in the presence of VEGF
Source text: as §1
(A) Cell treatment was the same as in Figure 3. […] Antibodies in use included: anti-rabbit phospho-p44/42 MAPK, anti-rabbit p44/42 MAPK (CST), and anti-rabbit horseradish peroxidase (HRP) secondary antibody. (B) The intensities of each band were quantified and analyzed with the software Image Lab. Values were calculated as percentage of changes compared with a blank control (only medium), in mean ± SD, n = 4. * p < 0.05; compared with the control group.
as §2, with “gel.” for “gel. Then, 5% skim milk in Tris-buffered saline of pH 7.4 with 0.1% Tween-20 (as TBST) was used for blocking.”

HUVECs [2] = test: VEGF-induced cell proliferation (MTT); type: cell-based, human; settings: VEGF 10 ng/mL, 48 h, 0.1-10 µM
Experimental: (§3) VEGF has been reported as a crucial mediator in human umbilical vein endothelial cells (HUVECs).
HUVECs were incubated in the presence of VEGF (10 ng/mL) with or without drug treatments for 48 h. […] The absorbance of the samples at 570 nm was measured using a microplate reader (Thermo Fisher Scientific, Waltham, MA, USA). * p < 0.05; ** p < 0.01; compared with the control group.
First, 5 × 10^4 cells/mL […] cells were seeded on a 96-well plate. After 24 h incubation, 100 μL VEGF at a concentration of 10 ng/mL with various concentrations of analytes were added to the mixture, followed by the addition of 10 μL of MTT solution (5 mg/mL). Th blank group was set up without any drug treatments, while avastin was utilized as a positive control. The mixture was incubated at 37 °C for 4 h before 150 μL DMSO was employed to dissolve formazan salt formed during the reaction. The sample was collected and read under a microplate reader (Thermo Fisher Scientific) at a wavelength of 570 nm. Proliferation values were calculated as follows: cell proliferation (%) = (experimental value − background value)/(blank value − background value) × 100%.

HUVECs [3] = test: Wound closure assay; type: cell-based, human; settings: VEGF 10 ng/mL, 0.3 µM to 3 µM, 20 h
Experimental: as §3
Figure 6 RE-1 reduces VEGF-regulated wound recovery in HUVECs. […] (D) Quantification of wound recovery. Values were calculated as percentage of changes compared with the blank control (only medium), in mean ± SD, n = 4. * p < 0.05; ** p < 0.01; compared with the control group.
A wound closure assay was performed on cultured HUVECs to study cell migration in vitro. Procedures were described previously by Guo et al.. Briefly, HUVECs were seeded onto a 12-well plate at a density of 3 × 10^5 cells/well, and treatments were added when the cells grew to full confluence. The cells were washed with PBS and treated with drugs. The photos of each cell scrape at 0 (At0) and 20 h (At20) were captured with a microscope and imaging software (Zen, https://www.zeiss.com/microscopy/en/products/software/zeiss-zen.html, accessed on 19 January 2025) at a 10× magnification. The software TScratch 1.0 (CSE Lab, Zurich, Switzerland) was used to determine the open area of each scrape photo at various timepoints. Quantification of the recovery rate of wound was calculated according to the following equation: Wound closure (%) = (At0 − At20)/[…] × 100%.

HUVECs [4] = test: MTT cell viability (toxicity) in HUVECs; type: cell-based, human; settings: cultured HUVECs, concentrations up to 100 µM
HaCaT cells [5] = test: MTT cell viability (toxicity) in HaCaT cells; type: cell-based, human; settings: concentrations up to 100 µM
[6] = Caco-2 transepithelial permeability assay; type: in vitro ADME; settings: human; for Papp at 0.3 µM: Caco-2, sample tested at 0.3 µM; for Papp at 3 µM: Caco-2, sample tested at 3 µM
[7] = Stability test by HPLC (intra- and inter-day variability); type: physicochemical; settings: for Intra-day RSD: n = 6; for Intra-day Mean Peak Area: n = 6, HPLC 210 nm; for Inter-day Mean Peak Area / Inter-day RSD: n = 6, five successive days

With “avastin: avastin (bevacizumab), positive control against VEGF” the “inhibition of VEGF-mediated ROS formation” value (HaCaT cells [1]) was “able to reduce such an induction”.

For COc1cc(/C=C/c2ccc(OCCCn3c4c(c5cc(Br)ccc53)CCCC4n3cccc3)cc2)cc(OC)c1 (centres unmarked) [RE-1], the “binding degree to the protein” value (VEGF protein) was ~ 32%, the pKd (VEGF165 protein) was about 5.10 and the “disruption of phosphorylation of VEGF/VEGFR2” value (VEGF/VEGFR2 complex) was “able to disrupt the phosphorylation and binding activity of VEGF/VEGFR2 complex”. For the same molecule, the “inhibition of ERK1/2 phosphorylation” value (ERK1/2) was “found to block ERK1/2 phosphorylation”, the “inhibition of VEGF-regulated cell proliferation” value (HUVECs [2]) was “significant inhibitory activity” and the “inhibition of VEGF-regulated wound closure” value (HUVECs [3]) was “higher efficacy than resveratrol”. For the same molecule, the “inhibition of VEGF-mediated ROS formation” value (HaCaT cells [1]) was “better inhibitory performances than resveratrol”, the “toxicity (apoptosis) in MTT assay” value (HUVECs [4]) was “no significant apoptosis” and the “toxicity (apoptosis) in MTT assay” value (HaCaT cells [5]) was “no significant apoptosis”. The Papp ([6]; Caco-2, concentrations from 0.3 µM to 3 µM) was 15.8 to 20.9 ×10⁻⁶ cm/s, the Papp at 0.3 µM [6] was 15.8 ×10⁻⁶ cm/s and the Papp at 3 µM [6] was 20.9 ×10⁻⁶ cm/s. For the same molecule, the “Intra-day RSD” value ([7]; acidic solution) was 5.84%, the “Intra-day Mean Peak Area” value ([7]; acidic solution) was 1316.9 and the “Inter-day Mean Peak Area” value ([7]; acidic solution) was 1403.9. For the same molecule, the “Inter-day RSD” value ([7]; acidic solution) was 8.83%, the “Intra-day RSD” value ([7]; basic solution) was 5.81% and the “Intra-day Mean Peak Area” value ([7]; basic solution) was 755.8. The “Inter-day Mean Peak Area” value ([7]; basic solution) was 747.2, the “Inter-day RSD” value ([7]; basic solution) was 9.35% and the “Intra-day RSD” value ([7]; neutral solution) was 4.93%. The “Intra-day Mean Peak Area” value ([7]; neutral solution) was 1002.8, the “Inter-day Mean Peak Area” value ([7]; neutral solution) was 1046.6 and the “Inter-day RSD” value ([7]; neutral solution) was 9.21%.

In the case of Oc1ccc(/C=C/c2cc(O)cc(O)c2)cc1 [resveratrol], the pKd (VEGF165 protein) was about 4.92, the “disruption of phosphorylation of VEGF/VEGFR2” value (VEGF/VEGFR2 complex) was “able to disrupt the phosphorylation and binding activity of VEGF/VEGFR2 complex” and the “inhibition of ERK1/2 phosphorylation” value (ERK1/2) was “found to block ERK1/2 phosphorylation”. For the same molecule, the “inhibition of VEGF-regulated cell proliferation” value (HUVECs [2]) was “decent inhibition”, the “inhibition of VEGF-regulated wound closure” value (HUVECs [3]) was “significant inhibitions to wound closure” and the “inhibition of VEGF-mediated ROS formation” value (HaCaT cells [1]) was “inhibitory effectiveness”. The “toxicity (apoptosis) in MTT assay” value (HUVECs [4]) was “mild apoptosis at relatively high concentrations”, the “toxicity (apoptosis) in MTT assay” value (HaCaT cells [5]) was “mild apoptosis at relatively high concentrations” and the Papp at 0.3 µM [6] was 15.1 ×10⁻⁶ cm/s. For the same molecule, the Papp at 3 µM [6] was 18.2 ×10⁻⁶ cm/s.
